Source: publication PMC3653934, “Identification of Adiponectin Receptor Agonist Utilizing a Fluorescence Polarization Based High Throughput Assay” (PLoS ONE, 2013)
Where two headings read alike, the source gives them in different places.

Experiments:
AdipoR2 = target: T1, AdipoR2 (UniProt Q86V24); assay: Competitive FP assay, displacement of probe 1 from AdipoR2; assay type: binding, human; details: 2 µM receptor, 100 nM probe 1, 30 min, 25°C
T1 sequence (Q86V24 1-386): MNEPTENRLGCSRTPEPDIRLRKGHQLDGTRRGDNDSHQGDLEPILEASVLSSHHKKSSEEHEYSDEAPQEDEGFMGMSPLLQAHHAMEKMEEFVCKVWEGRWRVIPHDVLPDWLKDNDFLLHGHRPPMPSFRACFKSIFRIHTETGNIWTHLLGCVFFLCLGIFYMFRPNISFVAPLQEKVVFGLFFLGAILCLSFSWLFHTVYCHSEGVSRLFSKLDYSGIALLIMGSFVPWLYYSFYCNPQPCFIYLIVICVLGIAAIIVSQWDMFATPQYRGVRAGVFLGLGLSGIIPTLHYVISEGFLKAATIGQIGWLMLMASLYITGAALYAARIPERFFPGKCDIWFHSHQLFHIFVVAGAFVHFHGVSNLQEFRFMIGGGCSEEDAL
Procedure: Unlabeled short peptide 3 was titrated against the FITC-labeled peptide and adiponectin receptor mixture. Plates were incubated at room temperature for up to 3 hours or 30 min at different temperatures. FP values were taken and IC50 values were calculated.
Master mixtures containing fluorescein-labeled probe 1 and adiponectin receptor (AdipoR1 or AdiopR2, 2 µM and probe 1 at 100 nM) in a reaction volume of 19 µl were prepared and loaded to plates. The library compounds (10 µM –0.078 µM, half dilutions) were prepared separately and transferred into the assay plates. The first and last columns of each plate were used as positive and negative control wells. Wells containing the drug only were used as controls to detect auto-fluorescence of the compounds in the total fluorescence assay. After subtraction of the background signal, data was processed and the IC50 values were determined by non-linear least square fitting using SigmaPlot 11.0.
Given that the present study is a screening study, peptide 3 was chosen as the positive control for cost-efficiency purposes.
To optimize the FP assay properly, it was necessary to assess the stability of the FP assay. The conditions for the FP assay were established by testing various parameters including incubation temperature, time, TF values, ΔmP values, and DMSO tolerance. […] In summary, the competitive FP binding assay conditions ideal for identifying adiponectin receptor agonists are: i) 2 µM adiponectin receptor, ii) 100 nM probe 1, iii) 5% final DMSO concentration (v/v), and iv) incubation for 30 min at 25°C before reading the plate.
A pilot screen against the natural product library of 10,000 compounds described above was performed at screening concentrations of 10 µM to 0.078 µM (half serial dilutions) in 5% DMSO (v/v). Controls present in each assay plate consisted of 5% DMSO (negative control) or peptide 3 (positive control).
We screened a library of 10,000 natural compounds for adiponectin agonists. […] 46 compounds that could generate IC50 curves were identified as initial hits.

[1] = tested on: AMPK phosphorylation (AdipoR1 signaling) in MDA-MB-231 cells; assay: Western blot of AMPK phosphorylation in MDA-MB-231 cells; assay type: cell-based, human; details: MDA-MB-231 cells treated at IC50 concentration for 6 h
Procedure: Cells were grown to 80% confluence, harvested and aliquoted into 100 mm dishes in serum free media. Cells were allowed to attach overnight and then the serum free media was removed and then cells were washed in PBS twice. Different doses of compounds were prepared in the normal media and added to different dishes for an additional 6 h. Cells were washed 3 times with ice-cold PBS and cell lysates were prepared by scraping cells into lysis buffer A (RIPA buffer, 2 mM dithiothreitol […], 1×Halt protease inhibitor cocktail (Thermo scientific), and 1×Halt phosphatase inhibitor cocktail (Thermo scientific)). The cells were allowed to swell on ice (5 min), after which the homogenate was centrifuged. The supernatants were transferred to fresh tubes and protein concentrations were determined using the Bio-Rad protein assay (Bio-Rad Laboratories, Inc.) per manufacturer’s instructions. Aliquots of the cell lysates were stored at −80°C.
Equal amounts of total protein (50 µg) were subjected to electrophoresis (10% tris-HCl, 1.0 mm gels) and transferred to nitrocellulose membranes. Membranes were blocked in TBS containing 0.05% Tween 20 (TBST) and 5% nonfat milk or 5% BSA for 1 hour at room temperature. Appropriately diluted primary antibodies were incubated in TBST/5% nonfat milk or TBST/5% BSA for 2 h at room temperature or overnight at 4 °C. Membranes were washed in TBST three times for 15 min each. Appropriately diluted secondary antibodies were incubated in superblock blocking buffers (Thermo Scientific) for 1 h at room temperature. Membranes were washed in TBST three times for 15 min. Proteins were detected by Amersham™ ECL plus western blotting detection system (GE healthcare). The following antibodies were used: anti-AdipoR1 M18, anti-AdipoR2 C12 (Santa Cruz Biotechnology, Santa Cruz, CA), anti-p-AMPKα(T172), anti-AMPKα, and anti-β-actin (Cell Signaling, Danvers, MA).
It is well established that adiponectin activates AMPK and p38 MAPK through AdipoR1 or PPARα through AdipoR2 to mediate its downstream signaling cascades, [9], [12], [14]. […] The levels of phosphorylation of AMPK and phosphorylation of PPARα were examined and the relative expression levels of the phospho-protein to the total expression of protein levels were quantified using ImageJ software (NIH) ( Fig. 3 ).
Figure 3 Effects of hit compounds on adiponectin receptor signaling pathways. […] A total 50 µg of cell lysate was loaded to each lane. Western blot was performed follow the protocol in materials and methods section.

MCF-7 cells = assay: Cell viability assay (CellTiter-Blue) in MCF-7 cells; assay type: cell-based; details: Homo sapiens, MCF7; 72 h, 20 µM to 1.2 nM; read-out: IC50 (µM) MCF-7 cells, cell viability
Procedure: All cell lines were obtained from the American Type Culture Collection (ATCC). MCF-7 and MDA-MB-231 cells were maintained in DMEM containing 10% fetal bovine serum and supplied with 1% penicillin/streptomycin. All cells were maintained in a 5% CO2 atmosphere at 37°C.
The effects of the lead compounds on cell proliferation were tested in MCF-7 and MDA-MB-231 cells. Cells were grown to 80% confluence, harvested and aliquoted into 384-well plates in a total volume of 45 µl per well. The outer wells were inoculated with sterile water to minimize evaporation from the sample wells. Cells were allowed to attach overnight and 5 µl culture media containing either vehicles or drug were added. Cell proliferation was evaluated using CellTilter-Blue reagent (Promega, China) according to manufacturer’s instructions after 72-h incubation. Fluorescence was measured with an excitation at 530 nm and emission at 590 nm. After background subtraction, cell viability values were normalized to vehicle controls and expressed as percentage of the mean of the relative vehicle controls.
To further confirm the agonistic activity of hit compounds, MDA-MB-231 and MCF-7 cells were treated with different concentrations of g-Ad or drug (20 µM to 1.2 nM) for 72 hours and cell viability was measured. Thus, four compounds (arctiin, (-)-arctigenin, matairesinol and gramine) that show agonistic activity against adiponectin receptor 1 and four compounds (deoxyschizandrin, taxifoliol, syringing and parthenolide) that show agonistic activity against adiponectin receptor 2 were identified.

[2] = primary screen, read-out: IC50 vs AdipoR2 (µM) Primary screen
[3] = validation, read-out: IC50 vs AdipoR2 (µM) Validated

IC50 (AdipoR2; [2]) [µM]	IC50 (AdipoR2; [3]) [µM]	IC50 (MCF-7 cells) [µM]	Compound	Effect on AMPK phosphorylation [1]
> 5	> 5	> 10	COc1ccc(C[C@H]2COC(=O)[C@@H]2Cc2ccc(O[C@@H]3O[C@H](CO)[C@@H](O)[C@H](O)[C@H]3O)c(OC)c2)cc1OC [Compound 1, Arctiin]	elevated
> 5	> 5	> 10	COc1cc(C[C@H]2COC(=O)[C@@H]2Cc2ccc(O)c(OC)c2)ccc1O [Compound 3, Matairesinol]	elevated
1.5	1.2 ± 0.1	2.5 ± 0.4	C=C1C(=O)O[C@H]2[C@H]1CC/C(C)=C/CC[C@@]1(C)O[C@@H]21 [Compound 7, Parthenolide]	no effect
3.5	3.2 ± 0.7	5.5 ± 0.6	COc1cc2c(c(OC)c1OC)-c1c(cc(OC)c(OC)c1OC)C[C@H](C)[C@H](C)C2 [Compound 4, Deoxyschizandrin]	decreased

Compound	IC50 (AdipoR2; [2]) [µM]	IC50 (AdipoR2; [3]) [µM]	IC50 (MCF-7 cells) [µM]	Effect on AMPK phosphorylation [1]
CN(C)Cc1c[nH]c2ccccc12 [Compound 9, Gramine]	3.6	3.2 ± 0.2	0.1 ± 0.1	elevated
